Experimental data published in patent publication US4782151A, “Polyprenyl compound and pharmaceutical use” (Eisai Co., Ltd., priority 1984, dated 1988).

Columns and labels:
Pyloric Ligation Ulcer = assay: Effect on Pyloric Ligation Ulcer; type: in vivo, Wistar strain male rats; parameters: key to Grade Index G.I. mean ± S.E.: ulcer grade 0–V by eye; larger = more ulcers, V = perforation
Method: According to the method of Shay et al. described in Gastroenterology, Vol 5, p. 43 (1945), Wistar strain male rats each weighing about 300 g were not given any diet for 48 hours, and then their pyloric segments were ligated. After 15 hours, the abdomen of each of the rats was opened, and the stomach was excised. The stomach was cut open along the side of the greater curvature, and the ulcers developed on the fore-stomach were classified and evaluated with the naked eye into five stages. The larger ulcer index means the more ulcers and index V refers to an example of perforation. The medicines were evaluated by determining their mean ±standard error. […] Cimetidine and propantheline were selected as control medicines.
(Note) In Table 2, Grade Index was evaluated on the basis of the size,
number, and severity of ulcers.

gastric acid secretion = assay: Gastric acid secretion inhibiting effect (pylorus-ligated rats, method of Shay); type: in vivo, Wistar strain male rats; settings: for inhibition in vivo at 100 mg/kg: Rattus norvegicus, 100 mg/μg (so in the source), to the duodenum during pyloric ligation, 4 hours, vs control group
Method: According to the method of H. Shay et a. described in Gastroenterology, Vol. 5, p. 43 (1945), Wistar strain male rats each weighing about 200 g were not given any diet for 24 hours, and their pyloric segments were ligated under etherization. After four hours, the stomachs were excised under deep etherization, and the contents of the stomachs were collected. After determination of the amount, the gastric juice was centrifuged at 3,000 rpm for 10 minutes and the supernatant liquid was titrated by neutralization (at a pH 7.0) with N/50-NaOH by means of an automatic titrator (TTA 81, Radiometer, Copenhagen) to determine the acidity. The amount of the acid which had been secreted for four hours was calculated from the volume of the gastric juice and the acidity. The results are represented in terms of % inhibition with respect to the control group. Each of the compounds tested was emulsified in a 25% decaglyn mixture (polyglycerin fatty acid ester), and 100 mg/μg (dose 0.2 ml/100 g weight) was administered to the duodenum during the ligation of the pyloric segment. In the control group, only the solvent was administered.

Ethanol-Induced Ulcer = assay: Effect on Ethanol-Induced Ulcer; type: in vivo, Wistar male rats
Method: According to the method of Robert et al., 1 ml/rat of absolute ethanol was administered orally to each of Wistar male rats. After one hour, the stomach of each rat was excised, 10 ml of physiologically saline solution was injected into the stomach, and the stomach was soaked in 5% neutral formalin. Each stomach was cut open along the side of the greater curvature, and the ulcers developed on the glandular stomach were measured for their lengths and the total sum of the lengths was defined as ulcer index.
Compound B, i.e. N-(2,6,10,14-tetramethyl-18-oxo-2,6,10,14-nonadecatetraenoyl)diethylamine,and compound F, i.e. N-(2,6,10,14-tetramethyl-18-oxo-2,6,10,14-nonadecatetraenoyl)pyrrolidine, were selected as test compounds and emulsified in 2.5% decaglyn mixture, and 12.5 to 100 mg/kg (dose volume 0.2 ml/100 g-weight) was administered orally 30 minutes before administration of ethanol.

in vivo = settings: mouse, po
[1] = 100 mg/kg, 15 hours after pylorus ligation
[2] = 100 mg/kg, N 4 (Compound B), N 10 (Cimetidine)
[3] = 12.5 mg/kg orally 30 minutes before ethanol
[4] = 25 mg/kg orally 30 minutes before ethanol
[5] = 50 mg/kg orally 30 minutes before ethanol
[6] = 100 mg/kg orally 30 minutes before ethanol

CN/C(=N/CCSCc1nc[nH]c1C)NC#N [Cimetidine, reference compound]
Grade Index G.I. mean ± S.E. (Pyloric Ligation Ulcer; [1]): 3.3 ± 0.7
Grade Index 0 (number of animals) (Pyloric Ligation Ulcer; [2]): 2
Grade Index I (number of animals) (Pyloric Ligation Ulcer; [2]): 0
Grade Index II (number of animals) (Pyloric Ligation Ulcer; [2]): 1
Grade Index III (number of animals) (Pyloric Ligation Ulcer; [2]): 2
Grade Index IV (number of animals) (Pyloric Ligation Ulcer; [2]): 0
Grade Index V (number of animals; perforation) (Pyloric Ligation Ulcer; [2]): 5

CC(=O)CCC=C(C)CCC=C(C)CCC=C(C)CCC=C(C)C(=O)N1CCOCC1 [Compound A]
inhibition in vivo at 100 mg/kg (gastric acid secretion): 52.9%

CCN(CC)C(=O)C(C)=CCCC(C)=CCCC(C)=CCCC(C)=CCCC(C)=O [Compound B, N-(2,6,10,14-tetramethyl-18-oxo-2,6,10,14-nonadecatetraenoyl)diethylamine]
inhibition in vivo at 100 mg/kg (gastric acid secretion): 83.5%
action of inhibiting acid secretion (in words) (gastric acid secretion; rat, in vivo): powerful action of inhibiting acid secretion
Grade Index 0 (number of animals) (Pyloric Ligation Ulcer; 25 mg/kg, N 6): 2
Grade Index I (number of animals) (Pyloric Ligation Ulcer; 25 mg/kg, N 6): 1
Grade Index II (number of animals) (Pyloric Ligation Ulcer; 25 mg/kg, N 6): 2
Grade Index III (number of animals) (Pyloric Ligation Ulcer; 25 mg/kg, N 6): 0
Grade Index IV (number of animals) (Pyloric Ligation Ulcer; 25 mg/kg, N 6): 0
Grade Index V (number of animals; perforation) (Pyloric Ligation Ulcer; 25 mg/kg, N 6): 1
Grade Index G.I. mean ± S.E. (Pyloric Ligation Ulcer; 25 mg/kg, to the duodenum during pylorus ligation, 15 hours): 1.7 ± 0.7
Grade Index 0 (number of animals) (Pyloric Ligation Ulcer; 50 mg/kg, N 6): 2
Grade Index I (number of animals) (Pyloric Ligation Ulcer; 50 mg/kg, N 6): 3
Grade Index II (number of animals) (Pyloric Ligation Ulcer; 50 mg/kg, N 6): 0
Grade Index III (number of animals) (Pyloric Ligation Ulcer; 50 mg/kg, N 6): 0
Grade Index IV (number of animals) (Pyloric Ligation Ulcer; 50 mg/kg, N 6): 0
Grade Index V (number of animals; perforation) (Pyloric Ligation Ulcer; 50 mg/kg, N 6): 1
Grade Index G.I. mean ± S.E. (Pyloric Ligation Ulcer; 50 mg/kg, to the duodenum during pylorus ligation, 15 hours): 1.3 ± 0.8
Grade Index G.I. mean ± S.E. (Pyloric Ligation Ulcer; [1]): 0.0 ± 0.0
Grade Index 0 (number of animals) (Pyloric Ligation Ulcer; [2]): 4
Grade Index I (number of animals) (Pyloric Ligation Ulcer; [2]): 0
Grade Index II (number of animals) (Pyloric Ligation Ulcer; [2]): 0
Grade Index III (number of animals) (Pyloric Ligation Ulcer; [2]): 0
Grade Index IV (number of animals) (Pyloric Ligation Ulcer; [2]): 0
Grade Index V (number of animals; perforation) (Pyloric Ligation Ulcer; [2]): 0
Grade Index 0 (number of animals) (Pyloric Ligation Ulcer; 200 mg/kg, N 4): 4
Grade Index I (number of animals) (Pyloric Ligation Ulcer; 200 mg/kg, N 4): 0
Grade Index II (number of animals) (Pyloric Ligation Ulcer; 200 mg/kg, N 4): 0
Grade Index III (number of animals) (Pyloric Ligation Ulcer; 200 mg/kg, N 4): 0
Grade Index IV (number of animals) (Pyloric Ligation Ulcer; 200 mg/kg, N 4): 0
Grade Index V (number of animals; perforation) (Pyloric Ligation Ulcer; 200 mg/kg, N 4): 0
Grade Index G.I. mean ± S.E. (Pyloric Ligation Ulcer; 200 mg/kg, to the duodenum during pylorus ligation, 15 hours): 0.0 ± 0.0
Inhibition (%) of ulcer index (Ethanol-Induced Ulcer; [3]): 82.6%
Ulcer Index Mean ± S.E. (mm) (Ethanol-Induced Ulcer; [3]): 10.1 ± 5.9 mm
Inhibition (%) of ulcer index (Ethanol-Induced Ulcer; [4]): 97.6%
Ulcer Index Mean ± S.E. (mm) (Ethanol-Induced Ulcer; [4]): 1.4 ± 1.0 mm
Inhibition (%) of ulcer index (Ethanol-Induced Ulcer; [5]): 90.4%
Ulcer Index Mean ± S.E. (mm) (Ethanol-Induced Ulcer; [5]): 5.6 ± 2.9 mm
Inhibition (%) of ulcer index (Ethanol-Induced Ulcer; [6]): 97.8%
Ulcer Index Mean ± S.E. (mm) (Ethanol-Induced Ulcer; [6]): 1.3 ± 1.0 mm

CCNC(=O)C(C)=CCCC(C)=CCCC(C)=CCCC(C)=CCCC(C)=O [Compound C]
inhibition in vivo at 100 mg/kg (gastric acid secretion): 63.2%

CC(=O)CCC=C(C)CCC=C(C)CCC=C(C)CCC=C(C)C(=O)N(C)C [Compound D]
inhibition in vivo at 100 mg/kg (gastric acid secretion): 52.6%
LD50 (in vivo): > 5000 mg/kg

CC(=O)CCC=C(C)CCC=C(C)CCC=C(C)CCC=C(C)C(=O)N(CCO)CCO [Compound E]
inhibition in vivo at 100 mg/kg (gastric acid secretion): 52.2%

CC(=O)CCC=C(C)CCC=C(C)CCC=C(C)CCC=C(C)C(=O)N1CCCC1 [Compound F, N-(2,6,10,14-tetramethyl-18-oxo-2,6,10,14-nonadecatetraenoyl)pyrrolidine]
inhibition in vivo at 100 mg/kg (gastric acid secretion): 76.1%
Inhibition (%) of ulcer index (Ethanol-Induced Ulcer; [3]): 63.2%
Ulcer Index Mean ± S.E. (mm) (Ethanol-Induced Ulcer; [3]): 21.4 ± 8.2 mm
Inhibition (%) of ulcer index (Ethanol-Induced Ulcer; [4]): 94.8%
Ulcer Index Mean ± S.E. (mm) (Ethanol-Induced Ulcer; [4]): 3.0 ± 1.9 mm
Inhibition (%) of ulcer index (Ethanol-Induced Ulcer; [5]): 85.7%
Ulcer Index Mean ± S.E. (mm) (Ethanol-Induced Ulcer; [5]): 8.3 ± 3.4 mm
Inhibition (%) of ulcer index (Ethanol-Induced Ulcer; [6]): 97.1%
Ulcer Index Mean ± S.E. (mm) (Ethanol-Induced Ulcer; [6]): 1.7 ± 0.9 mm
LD50 (in vivo): > 5000 mg/kg

CC(=O)CCC=C(C)CCC=C(C)CCC=C(C)CCC=C(C)C(=O)n1ccnc1 [Compound H]
inhibition in vivo at 100 mg/kg (gastric acid secretion): 49.1%

CC(=O)CCC=C(C)CCC=C(C)CCC=C(C)CCC=C(C)C(=O)N1CC=CC1 [Compound I]
inhibition in vivo at 100 mg/kg (gastric acid secretion): 43.9%

CC(=O)CCC=C(C)CCC=C(C)CCC=C(C)CCC=C(C)CNC(C)=O [Compound J]
inhibition in vivo at 100 mg/kg (gastric acid secretion): 53%

CCC(=O)NCC(C)=CCCC(C)=CCCC(C)=CCCC(C)=CCCC(C)=O [Compound K]
inhibition in vivo at 100 mg/kg (gastric acid secretion): 50.2%

CCN(CC(C)=CCCC(C)=CCCC(C)=CCCC(C)=CCCC(C)=O)C(C)=O [Compound L]
inhibition in vivo at 100 mg/kg (gastric acid secretion): 62.6%

CCOC(=O)C=C(C)CCC=C(C)CCC=C(C)CCC=C(C)C(=O)N(CC)CC [Compound M]
inhibition in vivo at 100 mg/kg (gastric acid secretion): 80.6%

CC(C)[N+](C)(CCOC(=O)C1c2ccccc2Oc2ccccc21)C(C)C [Propantheline bromide, reference compound]
Grade Index 0 (number of animals) (Pyloric Ligation Ulcer; 30 mg/kg, N 10): 8
Grade Index I (number of animals) (Pyloric Ligation Ulcer; 30 mg/kg, N 10): 2
Grade Index II (number of animals) (Pyloric Ligation Ulcer; 30 mg/kg, N 10): 0
Grade Index III (number of animals) (Pyloric Ligation Ulcer; 30 mg/kg, N 10): 0
Grade Index IV (number of animals) (Pyloric Ligation Ulcer; 30 mg/kg, N 10): 0
Grade Index V (number of animals; perforation) (Pyloric Ligation Ulcer; 30 mg/kg, N 10): 0
Grade Index G.I. mean ± S.E. (Pyloric Ligation Ulcer; 30 mg/kg, 15 hours after pylorus ligation): 0.2 ± 0.1
